Active and inactive are the calls of the source. No cut-off for these calls is given here.
Key:
[1] = (§1) Inhibition of TNFalpha-induced NF-kappaB activity expressed in human HEK 293 cells after 6 hrs by luciferase reporter gene assay; type: cell-based; details: HEK293, 6 h
RAW264.7 [2] = assay: Antiinflammatory activity against LPS-induced NO production in mouse RAW264.7 cells assessed as reduction in nitrite level at 50 uM preincubated for 15 mins prior to LPS treatment by Griess method; type: functional
[3] = Cytotoxicity in human HEK293 cells assessed as survival at 50 uM; type: cell-based; details: read-out: Survival
HEK293 [4] = assay: Inhibition of TNFalpha-induced NF-kappaB activity expressed in human HEK 293 cells at 50 uM after 6 hrs by luciferase reporter gene assay; type: cell-based
[5] = Cytotoxicity in mouse RAW264.7 cells assessed as cell survival at 50 uM; type: cell-based; details: read-out: Survival
RAW264.7 [6] = assay: Antiinflammatory activity against LPS-induced NO production in mouse RAW264.7 cells assessed as reduction in nitrite level preincubated for 15 mins prior to LPS treatment by Griess method; type: functional, cell-based
HEK293 [7] = assay: as §1; type: cell-based

SMILES	IC50 [1] [µM]	inhibition at 50 µM (RAW264.7 [2]) [%]	viability at 50 µM [3] [%]	inhibition (HEK293 [4]) [%]	viability at 50 µM [5] [%]	IC50 (RAW264.7 [6]) [µM]	inhibition (HEK293 [7])
C/C=C(\C)C(=O)O[C@H]1C[C@@H](C)[C@]2(OC)CC[C@](C)(/C=C3/OC(=O)C(COC(C)=O)=C31)O2	12.8	99	16.5	97.6	5.4	1.2	
C/C=C(\C)C(=O)O[C@H]1C[C@@H](C)[C@]2(OC)CC[C@](C)(/C=C3/OC(=O)C(CO)=C31)O2	1.6	99.8	9.3	94.1	15.6	2.4	
C[C@@H]1C[C@H](O)C2=C(CO)C(=O)O/C2=C/[C@@]2(C)CC[C@]1(O)O2	1.9	82.6	100	65.6	121	24.7	
CC(=O)OCC1=C2/C(=C\[C@@]3(C)CC[C@](O)(O3)[C@H](C)C[C@@H]2O)OC1=O	10.2	99.3	55	90.3	18	2.7	
C=C(C)C(=O)O[C@H]1C[C@@H](C)[C@]2(O)CC[C@](C)(/C=C3/OC(=O)C(COC(C)=O)=C31)O2	5.2	99.2	95.1	95.8	31.1	6.6	
C=C(C)C(=O)O[C@H]1C[C@@H](C)[C@]2(OC)CC[C@](C)(/C=C3/OC(=O)C(COC(C)=O)=C31)O2	13.6	98.8	39.1	94.2	6.3	1.5	
Cc1ccc(S(=O)(=O)/C=C/C#N)cc1	2						
CO[C@]12CC[C@](C)(/C=C3/OC(=O)C(CO)=C3[C@@H](O)C[C@H]1C)O2		84.2	91.9	33.4	134	28.1	inactive
CNC(=N)NCCC[C@H](N)C(=O)O						25.1	
Cc1ccc(S(=O)(=O)N[C@@H](Cc2ccccc2)C(=O)CCl)cc1 [TPCK]	3.8						
C/C=C(\C)C(=O)O[C@H]1C[C@@H](C)[C@]2(O)CC[C@](C)(/C=C3/OC(=O)C(CO)=C31)O2 (relative stereo)	3.1	99.8	87.6	98.6	32.2	5.7	
C/C=C(\C)C(=O)O[C@H]1C[C@@H](C)[C@]2(O)CC[C@](C)(/C=C3/OC(=O)C(COC(C)=O)=C31)O2	0.6	98	102	99.6	31.1	2	

Reference: ChEMBL document CHEMBL2062500, “Anti-inflammatory sesquiterpene lactones from the flower of Vernonia cinerea” (Bioorg Med Chem Lett, 2012)
